{
  "source": "ChEMBL document CHEMBL3885861",
  "about": "“Open TG-GATES”",
  "organism": "Rattus norvegicus",
  "assay": "Open TG-GATES - Regimen: Daily Repeat",
  "format": "toxicity, organism-based, Sprague-Dawley",
  "design": "regimen Daily Repeat, gender Male, age 6 weeks",
  "details": "in vivo, po, 1000 mg/kg, route gavage, dose level High; for APTT / Bas / Eos / Fbg / Hb / Ht / Lym / MCH / MCHC / MCV / Mono / Neu / PT / Plat / RBC / Ret / WBC: tissue Blood",
  "key": {"[1]": {"details": "72 h, tissue Kidney, time 3 day"}, "[2]": {"details": "72 h, tissue Plasma, time 3 day"}},
  "data": [
    {"smiles": "NC(N)=Nc1nc(CSCCC(N)=NS(N)(=O)=O)cs1", "note": "[FAMOTIDINE]", "values": [
      {"measurement": "TERMINAL_BW", "setting": "72 h, time 3 day", "result": 226, "unit": "g"},
      {"measurement": "APTT", "setting": "72 h, time 3 day", "result": 19.5, "unit": "s"},
      {"measurement": "Bas", "setting": "72 h, time 3 day", "result": 0, "unit": "%"},
      {"measurement": "Eos", "setting": "72 h, time 3 day", "result": 1, "unit": "%"},
      {"measurement": "Fbg", "setting": "72 h, time 3 day", "result": 226.2, "unit": "mg/dL"},
      {"measurement": "Hb", "setting": "72 h, time 3 day", "result": 13.2, "unit": "g/dL"},
      {"measurement": "Ht", "setting": "72 h, time 3 day", "result": 36.9, "unit": "%"},
      {"measurement": "Lym", "setting": "72 h, time 3 day", "result": 79, "unit": "%"},
      {"measurement": "MCH", "setting": "72 h, time 3 day", "result": 21.9, "unit": "pg"},
      {"measurement": "MCHC", "setting": "72 h, time 3 day", "result": 36, "unit": "%"},
      {"measurement": "MCV", "setting": "72 h, time 3 day", "result": 60.8, "unit": "fL"},
      {"measurement": "Mono", "setting": "72 h, time 3 day", "result": 2.6, "unit": "%"},
      {"measurement": "Neu", "setting": "72 h, time 3 day", "result": 14.4, "unit": "%"},
      {"measurement": "PT", "setting": "72 h, time 3 day", "result": 11.9, "unit": "s"},
      {"measurement": "Plat", "setting": "72 h, time 3 day", "result": 126.7, "unit": "x10_4/uL"},
      {"measurement": "RBC", "setting": "72 h, time 3 day", "result": 607, "unit": "x10_4/ul"},
      {"measurement": "Ret", "setting": "72 h, time 3 day", "result": 4.4, "unit": "%"},
      {"measurement": "WBC", "setting": "72 h, time 3 day", "result": 84.8, "unit": "x10_2/uL"},
      {"measurement": "KIDNEY_L", "setting": "[1]", "result": 1, "unit": "g"},
      {"measurement": "KIDNEY_R", "setting": "[1]", "result": 1, "unit": "g"},
      {"measurement": "KIDNEY_TOTAL", "setting": "[1]", "result": 2, "unit": "g"},
      {"measurement": "LIVER", "setting": "72 h, tissue Liver, time 3 day", "result": 10.4, "unit": "g"},
      {"measurement": "A/G", "setting": "[2]", "result": 1.5},
      {"measurement": "ALP", "setting": "[2]", "result": 917.2, "unit": "IU/L"},
      {"measurement": "ALT", "setting": "[2]", "result": 32.8, "unit": "IU/L"},
      {"measurement": "AST", "setting": "[2]", "result": 60.4, "unit": "IU/L"},
      {"measurement": "BUN", "setting": "[2]", "result": 15.4, "unit": "mg/dL"},
      {"measurement": "CRE", "setting": "[2]", "result": 0.4, "unit": "mg/dL"},
      {"measurement": "Ca", "setting": "[2]", "result": 10.8, "unit": "mg/dL"},
      {"measurement": "Cl", "setting": "[2]", "result": 104.2, "unit": "meq/L"},
      {"measurement": "DBIL", "setting": "[2]", "result": 0.088, "unit": "mg/dL"},
      {"measurement": "GLC", "setting": "[2]", "result": 179.4, "unit": "mg/dL"},
      {"measurement": "IP", "setting": "[2]", "result": 7.7, "unit": "mg/dL"},
      {"measurement": "LDH", "setting": "[2]", "result": 185.8, "unit": "IU/L"},
      {"measurement": "Na", "setting": "[2]", "result": 141.2, "unit": "meq/L"},
      {"measurement": "PL", "setting": "[2]", "result": 137.8, "unit": "mg/dL"},
      {"measurement": "RALB", "setting": "[2]", "result": 3.3, "unit": "g/dL"},
      {"measurement": "TBIL", "setting": "[2]", "result": 0.1, "unit": "mg/dL"},
      {"measurement": "TC", "setting": "[2]", "result": 77.6, "unit": "mg/dL"},
      {"measurement": "TG", "setting": "[2]", "result": 79.6, "unit": "mg/dL"},
      {"measurement": "TP", "setting": "[2]", "result": 5.5, "unit": "g/dL"},
      {"measurement": "gamma-GTP", "setting": "[2]", "result": 1, "unit": "IU/L"},
      {"measurement": "TERMINAL_BW", "setting": "[…], time 7 day", "result": 262.1, "unit": "g"},
      {"measurement": "TERMINAL_BW", "setting": "[…], time 14 day", "result": 322.6, "unit": "g"},
      {"measurement": "TERMINAL_BW", "setting": "[…], time 28 day", "result": 376.8, "unit": "g"},
      {"measurement": "APTT", "setting": "[…], time 7 day", "result": 21.5, "unit": "s"},
      {"measurement": "Bas", "setting": "[…], time 7 day", "result": 0, "unit": "%"},
      {"measurement": "Eos", "setting": "[…], time 7 day", "result": 1.2, "unit": "%"},
      {"measurement": "Fbg", "setting": "[…], time 7 day", "result": 223.4, "unit": "mg/dL"},
      {"measurement": "Hb", "setting": "[…], time 7 day", "result": 13.6, "unit": "g/dL"},
      {"measurement": "Ht", "setting": "[…], time 7 day", "result": 38.2, "unit": "%"},
      {"measurement": "Lym", "setting": "[…], time 7 day", "result": 75, "unit": "%"},
      {"measurement": "MCH", "setting": "[…], time 7 day", "result": 21.5, "unit": "pg"},
      {"measurement": "MCHC", "setting": "[…], time 7 day", "result": 35.5, "unit": "%"},
      {"measurement": "MCV", "setting": "[…], time 7 day", "result": 60.3, "unit": "fL"},
      {"measurement": "Mono", "setting": "[…], time 7 day", "result": 2.8, "unit": "%"},
      {"measurement": "Neu", "setting": "[…], time 7 day", "result": 19.6, "unit": "%"},
      {"measurement": "PT", "setting": "[…], time 7 day", "result": 12.1, "unit": "s"},
      {"measurement": "Plat", "setting": "[…], time 7 day", "result": 122.6, "unit": "x10_4/uL"},
      {"measurement": "RBC", "setting": "[…], time 7 day", "result": 634.4, "unit": "x10_4/ul"},
      {"measurement": "Ret", "setting": "[…], time 7 day", "result": 5.5, "unit": "%"},
      {"measurement": "WBC", "setting": "[…], time 7 day", "result": 107.5, "unit": "x10_2/uL"},
      {"measurement": "APTT", "setting": "[…], time 14 day", "result": 23.4, "unit": "s"},
      {"measurement": "Bas", "setting": "[…], time 14 day", "result": 0, "unit": "%"},
      {"measurement": "Eos", "setting": "[…], time 14 day", "result": 0.8, "unit": "%"},
      {"measurement": "Fbg", "setting": "[…], time 14 day", "result": 228, "unit": "mg/dL"},
      {"measurement": "Hb", "setting": "[…], time 14 day", "result": 13.9, "unit": "g/dL"},
      {"measurement": "Ht", "setting": "[…], time 14 day", "result": 40.7, "unit": "%"},
      {"measurement": "Lym", "setting": "[…], time 14 day", "result": 76.8, "unit": "%"},
      {"measurement": "MCH", "setting": "[…], time 14 day", "result": 21.2, "unit": "pg"},
      {"measurement": "MCHC", "setting": "[…], time 14 day", "result": 34.2, "unit": "%"},
      {"measurement": "MCV", "setting": "[…], time 14 day", "result": 62, "unit": "fL"},
      {"measurement": "Mono", "setting": "[…], time 14 day", "result": 2.2, "unit": "%"},
      {"measurement": "Neu", "setting": "[…], time 14 day", "result": 18.6, "unit": "%"},
      {"measurement": "PT", "setting": "[…], time 14 day", "result": 12.5, "unit": "s"},
      {"measurement": "Plat", "setting": "[…], time 14 day", "result": 117.7, "unit": "x10_4/uL"},
      {"measurement": "RBC", "setting": "[…], time 14 day", "result": 656.2, "unit": "x10_4/ul"},
      {"measurement": "Ret", "setting": "[…], time 14 day", "result": 4.8, "unit": "%"},
      {"measurement": "WBC", "setting": "[…], time 14 day", "result": 111.7, "unit": "x10_2/uL"},
      {"measurement": "APTT", "setting": "[…], time 28 day", "result": 21.5, "unit": "s"},
      {"measurement": "Bas", "setting": "[…], time 28 day", "result": 0, "unit": "%"},
      {"measurement": "Eos", "setting": "[…], time 28 day", "result": 1.2, "unit": "%"},
      {"measurement": "Fbg", "setting": "[…], time 28 day", "result": 222.2, "unit": "mg/dL"},
      {"measurement": "Hb", "setting": "[…], time 28 day", "result": 15.7, "unit": "g/dL"}
    ]}
  ]
}
